According to patent US8481551B2, “Gyrase and topoisomerase IV inhibitors” (Vertex Pharmaceuticals Incorporated, priority 2011, dated 2013):
Where a name gives a salt, the structure may show the parent alone. Read-outs that look alike come from different tables or passages of the source.

Columns and labels:
Staphylococcus aureus = test: microbe, parasite or virus in culture; type: cell-based
Neisseria gonorrhoeae = test: Gyrase MIC, agar dilution method (Protocol 3); type: cell-based; settings: for MIC90 / MIC Range: Neisseria gonorrhoeae, 13 isolates tested
Neisseria meningitidis = test: Gyrase MIC, agar dilution method (Protocol 3); type: cell-based; settings: 12 isolates tested
Mycobacterium avium = test: MIC determination procedure for Mycobacterium species (Protocol 4); type: cell-based
N. asteroids = test: as above; type: cell-based; settings: N. asteroids 2039
N. nova = test: as above; type: cell-based; settings: N. nova 10
Streptococcus pneumoniae = test: Gyrase MIC, microdilution broth method (Protocol 1)
Pseudomonas aeruginosa = test: Gyrase MIC against Gram negatives, microdilution broth method (Protocol 2)
S. aureus (ATCC 29213) = test: Mouse S. aureus kidney infection model; type: in vivo, CD-1 mice
Description: Animals: female CD-1 mice (8-10 weeks of age; 6/group), were obtained from Charles River Laboratories and were housed and maintained in accordance with the Guide to the Care and Use of Experimental Animals. Methicillin-sensitive S. aureus (MSSA) strain ATCC 29213 was obtained from the American Type Culture Collection. To prepare stocks for animal studies S. aureus was plated on Mueller Hinton Agar plates and incubated at 37° C. overnight. 3-4 colonies from the plate were used to inoculate 5 mL Mueller Hinton Broth (MHB) that was incubated for 8 hours at 37° C. with shaking at 300 RPM. The 5 mL 8-hour culture was diluted 20-fold into 100 mL and incubated overnight (12-14 hours). The bacteria were pelleted for 20 minutes at 3000× and washed twice with Phosphate-Buffered Saline (PBS) containing 0.5% Bovine Serum Albumin (BSA). Aliquots (1 mL) containing ˜1×10^10 cfu in PBS/20% Glycerol were frozen and stored at −80° C. until the day of use. Stock titers were confirmed by serial dilution and plating on Mueller Hinton agar plates. Prior to inoculation, bacterial stocks were thawed and washed once with PBS/BSA. The stocks were then diluted with PBS/BSA to a final concentration of 1×10^9 cfu/mL to give an inoculum of approximately 1-2×10^8 cfu per mouse in a volume of 100 uL. […] Injections were given intravenously via the tail vein using a sterile 30 gauge needle. Upon completion of the mouse infections, the bacterial stocks used to challenge the mice were plated and counted to verify the concentration of the inocula. […] Fisher Scientific). During collection and homogenization all of the samples were kept on ice and the homogenizer was washed thoroughly and sterilized between each sample. Homogenates were serially diluted in sterile PBS/BSA and plated on MH agar to determine bacterial counts per pair of kidneys. CD-1 mice (6/group) were challenged IV with S. aureus (ATCC 29213) at 2×10^8 cfu/mouse. […] The 30-minute and 6-hour treatment groups were treated once, while the 24-hour group received a second treatment 10 hours after the first dose. […] Burdens from pairs of kidneys for each mouse and the median for each group of mice were calculated. CD-1 mice (6/group) were challenged IV with S. aureus (ATCC 29213) at 2×10^8 cfu/mouse. After 2 hours a single group of mice (Early Control (EC)) was euthanized and the kidneys harvested, homogenized and plated to quantitate S. aureus burdens. The additional groups of infected mice were treated via oral gavage with Vehicle at 10 ml/kg (10% VitE TPGS; […] After 24 hours the groups of treated mice were euthanized and the kidneys harvested, homogenized and plated to quantitate S. aureus burdens. Burdens from pairs of kidneys for each mouse and the median for each group of mice were summarized. CD-1 mice (8/group) were challenged IV with S. aureus (ATCC 29213) at 2×10^8 cfu/mouse. After 2 hours a single group of mice (Early Control (EC)) was euthanized and the kidneys harvested, homogenized and plated to quantitate S. aureus burdens. The additional groups of infected mice were treated via oral gavage with Vehicle at 10 ml/kg (Water; […] After 24 hours the groups of treated mice were euthanized and the kidneys harvested, homogenized and plated to quantitate S. aureus burdens. Burdens from pairs of kidneys for each mouse and the median for each group of mice were summarized.

[1] = ATCC29213, Staphylococcus aureus ATCC 29213, Protocol 1, read-out: MIC
[2] = ATCC29213, Staphylococcus aureus ATCC 29213 GyrB T173I, Protocol 1
[3] = ATCC29213, Staphylococcus aureus ATCC 29213 with Mouse Serum, Protocol 1, read-out: MIC
[4] = ATCC29213, Staphylococcus aureus ATCC 29213 with Rat Serum, Protocol 1, read-out: MIC
[5] = ATCC35541, Neisseria gonorrhoeae ATCC 35541
[6] = ATCC49226, Neisseria gonorrhoeae ATCC 49226
[7] = 10 mg/kg oral gavage, second treatment 10 hours after first, 24 Hours
[8] = 10 mg/kg oral gavage, treated once, 6 Hours
[9] = 30 mg/kg oral gavage, second treatment 10 hours after first, 24 Hours
[10] = 30 mg/kg oral gavage, treated once, 6 Hours
[11] = 30 mg/kg oral gavage, treated once, 30 Minutes
[12] = 100 mg/kg oral gavage, second treatment 10 hours after first, 24 Hours
[13] = 100 mg/kg oral gavage, treated once, 6 Hours
[14] = 100 mg/kg oral gavage, treated once, 30 Minutes
[15] = single oral dose 10 mg/kg, after 24 hours
[16] = single oral dose 30 mg/kg, after 24 hours
[17] = single oral dose 60 mg/kg, after 24 hours
[18] = single oral dose 100 mg/kg, after 24 hours

CCNC(=O)Nc1nc2cc(-c3cnc(C(C)(C)O)nc3)cc([C@H]3CCCO3)c2[nH]1 [Compound 13, methanesulfonic acid salt of 1-ethyl-3-[5-[2-(1-hydroxy-1-methyl-ethyl)pyrimidin-5-yl]-7-[(2R)-tetrahydrofuran-2-yl]-1H-benzimidazol-2-yl]urea]
MIC90 (Staphylococcus aureus; 67 isolates tested, Protocol 1): 0.25 mg/L
MIC Range (Staphylococcus aureus; 67 isolates tested, Protocol 1): 0.03 to 0.5 mg/L
MIC (Staphylococcus aureus; [1]): 0.13 mg/L
MIC (Staphylococcus aureus; [2]): 1.29 mg/L
MIC (Staphylococcus aureus; ATCC29213, Staphylococcus aureus ATCC 29213 with Human Serum, Protocol 1, read-out: MIC): 0.31 mg/L
MIC (Staphylococcus aureus; [3]): 2 mg/L
MIC (Staphylococcus aureus; [4]): 0.53 mg/L
MIC (Neisseria gonorrhoeae; [5]): 1.3 mg/L
MIC (Neisseria gonorrhoeae; [6]): 2.3 mg/L
MIC90 (Neisseria gonorrhoeae): 1 mg/L
MIC Range (Neisseria gonorrhoeae): 0.5-1^ μg/ml
MIC90 (Neisseria meningitidis): 0.12 mg/L
MIC Range (Neisseria meningitidis): 0.015 to 0.25 mg/L
MIC (Mycobacterium avium; M. avium 3404.4): 0.94 mg/L
MIC (Mycobacterium avium; M. avium Far): 0.94 mg/L
MIC (Mycobacterium avium; Mycobacterium avium 103): 0.47 mg/L
MIC (N. asteroids): 8 mg/L
MIC (N. nova): 8 mg/L
MIC90 (Streptococcus pneumoniae): 0.06 mg/L
MIC Range (Streptococcus pneumoniae; 67 isolates tested, Protocol 1): 0.015 to 0.06 mg/L
MIC (Streptococcus pneumoniae; ATCC10015): 0.022 mg/L
MIC (Pseudomonas aeruginosa): 0.33 mg/L
MIC90 (Pseudomonas aeruginosa): > 8 mg/L
MIC (Pseudomonas aeruginosa; PAO1): > 16 mg/L

CCNC(=O)Nc1nc2cc(-c3cnc(C(C)(C)O)nc3)c(F)c([C@H]3CCCO3)c2[nH]1 [Compound 23A, methanesulfonic acid salt of 1-ethyl-3-[6-fluoro-5-[2-(1-hydroxy-1-methyl-ethyl)pyrimidin-5-yl]-7-[(2R)-tetrahydrofuran-2-yl]-1H-benzimidazol-2-yl]urea]
MIC90 (Staphylococcus aureus; 67 isolates tested, Protocol 1): 0.03 mg/L
MIC (Staphylococcus aureus; [1]): 0.021 mg/L
MIC (Staphylococcus aureus; [2]): 0.3 mg/L
MIC (Staphylococcus aureus; [3]): 0.5 mg/L
MIC (Staphylococcus aureus; [4]): 0.18 mg/L
MIC (Neisseria gonorrhoeae; [5]): 0.42 mg/L
MIC (Neisseria gonorrhoeae; [6]): 1 mg/L
MIC90 (Neisseria gonorrhoeae): 0.25 mg/L
MIC Range (Neisseria gonorrhoeae): 0.12 to 0.25 µg/mL
MIC90 (Neisseria meningitidis): 0.03 mg/L
MIC Range (Neisseria meningitidis): 0.008 to 0.06 mg/L
MIC (Mycobacterium avium; M. avium 3404.4): 0.23 mg/L
MIC (Mycobacterium avium; M. avium Far): 0.23 mg/L
MIC (Mycobacterium avium; Mycobacterium avium 103): 0.18 mg/L
MIC (N. asteroids): 1 mg/L
MIC (N. nova): 1 mg/L
Median Kidney Burden (Log cfu/kidneys) (S. aureus (ATCC 29213); 10 mg/kg oral gavage 2 h post challenge, treated once, time of treatment 30 Minutes): 4.84 Log cfu/kidneys
Log Difference vs. Vehicle Control (S. aureus (ATCC 29213); [7]): −1.87
Median Kidney Burden (Log cfu/kidneys) (S. aureus (ATCC 29213); [7]): 4.48 Log cfu/kidneys
Log Difference vs. Vehicle Control (S. aureus (ATCC 29213); [8]): −0.37
Median Kidney Burden (Log cfu/kidneys) (S. aureus (ATCC 29213); [8]): 4.84 Log cfu/kidneys
Log Difference vs. Vehicle Control (S. aureus (ATCC 29213); 10 mg/kg oral gavage, treated once, 30 Minutes): −0.14
Log Difference vs. Vehicle Control (S. aureus (ATCC 29213); [9]): −2.90
Median Kidney Burden (Log cfu/kidneys) (S. aureus (ATCC 29213); [9]): 3.44 Log cfu/kidneys
Log Difference vs. Vehicle Control (S. aureus (ATCC 29213); [10]): −0.59
Median Kidney Burden (Log cfu/kidneys) (S. aureus (ATCC 29213); [10]): 4.62 Log cfu/kidneys
Log Difference vs. Vehicle Control (S. aureus (ATCC 29213); [11]): 0.00
Median Kidney Burden (Log cfu/kidneys) (S. aureus (ATCC 29213); [11]): 4.97 Log cfu/kidneys
Log Difference vs. Vehicle Control (S. aureus (ATCC 29213); [12]): −2.86
Median Kidney Burden (Log cfu/kidneys) (S. aureus (ATCC 29213); [12]): 3.49 Log cfu/kidneys
Log Difference vs. Vehicle Control (S. aureus (ATCC 29213); [13]): −0.66
Median Kidney Burden (Log cfu/kidneys) (S. aureus (ATCC 29213); [13]): 4.55 Log cfu/kidneys
Log Difference vs. Vehicle Control (S. aureus (ATCC 29213); [14]): −0.08
Median Kidney Burden (Log cfu/kidneys) (S. aureus (ATCC 29213); [14]): 4.89 Log cfu/kidneys
kidney burden, compound- versus vehicle-treated mice (S. aureus (ATCC 29213); 30 minutes after the initial treatment, 10, 30, 100 mg/kg oral): no difference in kidney burden
log reduction versus the 30 minute early control (S. aureus (ATCC 29213); 6 hours after the first dose, 30 and 100 mg/kg oral): 0.3-0.4 log
reduction of bacterial burdens in the kidneys versus time-matched vehicle control (S. aureus (ATCC 29213); 6 hours after the first dose, all compound treatments (10, 30, 100 mg/kg oral)): 0.4-0.6 logs
log reduction versus the 24-hour vehicle-treated control (S. aureus (ATCC 29213); 24 hours, 10 mg/kg BID oral): 1.8 log
log reduction versus the 24-hour vehicle-treated control (S. aureus (ATCC 29213); 24 hours, 30 and 100 mg/kg BID oral): 2.8-2.9 log
log reductions versus the 30-minute vehicle-treated control (S. aureus (ATCC 29213); 24 hours, 30 and 100 mg/kg oral): approximately 1.5 log
Median Kidney Burden (Log cfu/kidneys) (S. aureus (ATCC 29213); single oral dose 10 mg/kg 2 h post challenge, after 24 hours): 4.73 Log cfu/kidneys
Log Reduction vs. Early Control (S. aureus (ATCC 29213); [15]): 0.00
Log Reduction vs. Late Control (S. aureus (ATCC 29213); [15]): −1.90
log reductions versus vehicle control (S. aureus (ATCC 29213); [15]): 1.9 log
Log Reduction vs. Early Control (S. aureus (ATCC 29213); [16]): −0.40
Log Reduction vs. Late Control (S. aureus (ATCC 29213); [16]): −2.31
Median Kidney Burden (Log cfu/kidneys) (S. aureus (ATCC 29213); [16]): 4.32 Log cfu/kidneys
log reductions versus vehicle control (S. aureus (ATCC 29213); [16]): 2.3 log
Log Reduction vs. Early Control (S. aureus (ATCC 29213); [17]): −1.21
Log Reduction vs. Late Control (S. aureus (ATCC 29213); [17]): −3.11
Median Kidney Burden (Log cfu/kidneys) (S. aureus (ATCC 29213); [17]): 3.52 Log cfu/kidneys
log reductions versus vehicle control (S. aureus (ATCC 29213); [17]): 3.1 log
Log Reduction vs. Early Control (S. aureus (ATCC 29213); [18]): −1.42
Log Reduction vs. Late Control (S. aureus (ATCC 29213); [18]): −3.32
Median Kidney Burden (Log cfu/kidneys) (S. aureus (ATCC 29213); [18]): 3.31 Log cfu/kidneys
log reductions versus vehicle control (S. aureus (ATCC 29213); [18]): 3.3 log
reduction of bacterial burdens versus the early control (S. aureus (ATCC 29213); single oral doses of 60 and 100 mg/kg, after 24 hours): 1.2-1.4 logs
MIC (Pseudomonas aeruginosa): 0.25 mg/L
MIC90 (Pseudomonas aeruginosa): > 8 mg/L
MIC (Pseudomonas aeruginosa; PAO1): > 16 mg/L
